According to patent US20250206738A1, “WRN INHIBITORS” (Nimbus Wadjet, Inc., priority 2023, published 2025):

Columns and labels:
[1] = biological target: T1, human Werner helicase (WRN, Uniprot Q14191, amino acids 517-1235 with L1074F point mutation; WRN-BV08) (Homo sapiens, UniProt Q14191, L1074F); test: WRN (BV08) ADP-Glo assay; format: biochemical; conditions: WRN-BV08 (aa 517-1235, L1074F); read-out: ADP-Glo_hWRN_IC50
T1 construct: Uniprot Q14191, amino acids 517-1235 with L1074F point mutation; 8xHis (C, cleaved yes); TEV cleavage site (ENLYFQG) (C, cleaved yes); made in house; host or cells: Sf9 insect cells (baculovirus, pFastBac)
Method in brief: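 WRN 517-1235 (L1074F, untagged, Sf9-expressed), 0.15 nM, preincubated with compound 15 min at 25 °C, then 60 min with […] and 0.1 nM DNA duplex in Bicine pH 7.5, 1 mM MgCl2, 1% DMSO. ADP-Glo luminescence; % inhibition vs NSC-617145 control, four-parameter IC50 fit.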

[2] = system: p21 induction in HCT 116 cells; test: p21 induction in cells (In-Cell Western, p21/GAPDH ratio); format: cell-based; conditions: Homo sapiens, HCT-116, 24 h, 24 h compound incubation, read-out: P21_EC50
Experimental: Example 3: Method for Determining Effect on p21 Induction in Cells
The colon carcinoma cell line HCT 116 was obtained from ATCC and cultured in growth medium consisting of Mccoy's 5A Medium (Gibco 16600108) supplemented with 10% FBS (Transgene FS201-02) and 100 units/mL penicillin-streptomycin (Gibco 15140122) and maintained at 37° C. under 5% CO2. On the day of seeding, 2,000 cells in 30 μL of culture media were plated per well to Poly-D-Lysine 384 Well Black Clear Plates (Biocoat 356663) and incubated overnight at 37° C. under 5% CO2. The following day, compounds were serially diluted in DMSO for a total of 11 test concentrations. The typical starting concentration of compounds was 10 μM with 2-fold dilutions. Next, 150 nL of diluted compound was added in duplicate to the assay plate, using an Echo 655 (Labcyte). The plate was centrifuged at 500 RPM for 1 min and then incubated at 37° C. under 5% CO2 for 24 h. After 24h, medium was removed, and cells were fixed by adding 40 μL of 4% paraformaldehyde solution to each well and incubated for 20 min at room temperature. The plate was then washed 4 times with 100 μL per well of wash buffer (PBS with 0.1% Tween-20) using a microplate washer. Next, 30 μL of ice-cold methanol was added to each well and the plate was incubated at −20° C. for 10 min. The plate was washed 4 times with 100 μL per well of wash buffer by a microplate washer, then 30 μL per well of blocking buffer (Intercept PBS blocking buffer (LI-COR 927-70001) with 0.05% Tween-20) was added and the plate was incubated at room temperature with shaking for 2h. Next, to each test well, 20 μL of primary antibody solution (p21 Waf1/CIP (12D1) RabbitmAb (Cell Signaling Technologies 2947) diluted 1:1000 and GAPDH (D4C6R) Mouse mAb (Cell Signaling Technologies 97166) diluted 1:2000 in blocking buffer) was added and the plate was placed at 4° C., overnight. The following day, the plate was washed 5 times with 100 μL per well of wash buffer using a microplate washer for 5 min. 20 μL per well of secondary antibody (IRDye 680CW Goat anti-Mouse IgG (H+L) (LI-COR 926-68070) diluted 1: 2000 in Blocking Buffer and IRDye 800CW Goat anti-Rabbit IgG (H+L) (LI-COR 926-32211) diluted 1: 2000 in Blocking Buffer) was then added and the plate was stored for 2h in the dark at room temperature with shaking. The plate was then washed 4 times with 100 μL per well of wash buffer again using a microplate washer. Finally, the p21 signal and the GAPDH signal were quantified using a LI-COR Odyssey CLx Imager machine reading at 800 nm and 700 nm, respectively. Each plate contained DMSO control (low control) and an internal reference WRN inhibitor (high control) respectively. For quantitation, the 800 nm/700 nm ratio was calculated for each well to give fold p21 induction and then percent activation for each compound well was calculated as follows (100×(ratio cpd well−ratio low control)/(ratio high control−ratio low control)). EC50 values for each compound were generated after non-linear regression curve fitting using commercially available software.

T1 sequence (Q14191 with tags, fused parts or gaps L1074F): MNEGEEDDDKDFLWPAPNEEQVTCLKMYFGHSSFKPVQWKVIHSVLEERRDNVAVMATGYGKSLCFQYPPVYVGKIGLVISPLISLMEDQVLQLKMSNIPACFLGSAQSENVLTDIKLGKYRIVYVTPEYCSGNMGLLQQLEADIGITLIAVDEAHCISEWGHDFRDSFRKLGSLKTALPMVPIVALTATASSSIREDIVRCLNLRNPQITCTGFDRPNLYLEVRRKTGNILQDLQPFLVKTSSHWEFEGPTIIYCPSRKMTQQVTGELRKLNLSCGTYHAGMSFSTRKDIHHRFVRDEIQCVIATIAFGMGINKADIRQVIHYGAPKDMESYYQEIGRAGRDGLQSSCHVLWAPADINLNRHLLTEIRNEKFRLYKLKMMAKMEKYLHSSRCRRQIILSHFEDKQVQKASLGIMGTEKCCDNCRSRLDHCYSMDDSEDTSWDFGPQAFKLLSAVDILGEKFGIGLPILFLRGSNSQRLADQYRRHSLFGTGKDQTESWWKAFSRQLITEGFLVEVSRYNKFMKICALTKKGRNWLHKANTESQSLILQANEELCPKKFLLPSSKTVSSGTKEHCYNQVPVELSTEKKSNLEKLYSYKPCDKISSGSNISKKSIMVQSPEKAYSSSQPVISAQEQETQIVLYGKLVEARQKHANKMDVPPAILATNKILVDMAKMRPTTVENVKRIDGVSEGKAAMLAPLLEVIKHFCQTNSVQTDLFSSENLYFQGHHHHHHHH

| IC50 [1] [nM] | EC50 [2] [nM] | Structure (SMILES) |
| --- | --- | --- |
| ≤ 5 | ≤ 500 | CCc1c(N2CCN(C(=O)c3c(O)ccc4ncoc34)CC2)c(=O)n2nc(-c3ccnc(OC)c3)nc2n1CC(=O)NC12CC(C3CCC3)(C1)C2 [I-28, N-(3-cyclobutylbicyclo[1.1.1]pentan-1-yl)-2-(5-ethyl-6-(4-(6-hydroxybenzo[d]oxazole-7-carbonyl)piperazin-1-yl)-2-(2-methoxypyridin-4-yl)-7-oxo-[1,2,4]triazolo[1,5-a]pyrimidin-4(7H)-yl)acetamide] |
| 5 to 50 | ≤ 500 | CCc1c(N2CCN(C(=O)c3c(O)ccc4ncoc34)CC2)c(=O)n2nc(C3=CCOCC3)nc2n1CC(=O)NC12CC(C3CC3)(C1)C2 [I-29, N-(3-cyclopropylbicyclo[1.1.1]pentan-1-yl)-2-(2-(3,6-dihydro-2H-pyran-4-yl)-5-ethyl-6-(4-(6-hydroxybenzo[d]oxazole-7-carbonyl)piperazin-1-yl)-7-oxo-[1,2,4]triazolo[1,5-a]pyrimidin-4(7H)-yl)acetamide] |
| 5 to 50 | 500 to 2000 | CCc1c(N2CCN(C(=O)c3c(O)ccc4ncoc34)CC2)c(=O)n2nc(-c3ccnc(OC)c3)nc2n1CC(=O)NC12CC(CCF)(C1)C2 [I-31, 2-(5-ethyl-6-(4-(6-hydroxybenzo[d]oxazole-7-carbonyl)piperazin-1-yl)-2-(2-methoxypyridin-4-yl)-7-oxo-[1,2,4]triazolo[1,5-a]pyrimidin-4(7H)-yl)-N-(3-(2-fluoroethyl)bicyclo[1.1.1]pentan-1-yl)acetamide] |
| 5 to 50 | 2000 to 5000 | CCc1c(N2CCN(C(=O)c3ncnc(C)c3O)CC2)c(=O)n2nc(C3=CCOCC3)nc2n1CC(=O)NC12CC(C3CC3)(C1)C2 [I-32, N-(3-cyclopropylbicyclo[1.1.1]pentan-1-yl)-2-(2-(3,6-dihydro-2H-pyran-4-yl)-5-ethyl-6-(4-(5-hydroxy-6-methylpyrimidine-4-carbonyl)piperazin-1-yl)-7-oxo-[1,2,4]triazolo[1,5-a]pyrimidin-4(7H)-yl)acetamide] |
| 100 to 500 | > 5000 | CCc1c(N2CCN(C(=O)c3ncnc(C)c3O)CC2)c(=O)n2nc(N(C)C)nc2n1CC(=O)NC12CC(C(F)(F)F)(C1)C2 [I-33, 2-(2-(dimethylamino)-5-ethyl-6-(4-(5-hydroxy-6-methylpyrimidine-4-carbonyl)piperazin-1-yl)-7-oxo-[1,2,4]triazolo[1,5-a]pyrimidin-4(7H)-yl)-N-(3-(trifluoromethyl)bicyclo[1.1.1]pentan-1-yl)acetamide] |
| > 500 | > 5000 | CCc1c(N2CCN(C(=O)c3c(O)ccc4ncoc34)CC2)c(=O)n2nc(-c3ccnc(OC)c3)nc2n1CCNC(=O)C12CC(C(F)(F)F)(C1)C2 [I-34, N-(2-(5-ethyl-6-(4-(6-hydroxybenzo[d]oxazole-7-carbonyl)piperazin-1-yl)-2-(2-methoxypyridin-4-yl)-7-oxo-[1,2,4]triazolo[1,5-a]pyrimidin-4(7H)-yl)ethyl)-3-(trifluoromethyl)bicyclo[1.1.1]pentyl-1-carboxamide] |
| ≤ 5 | ≤ 500 | CCc1c(N2CCN(C(=O)c3c(O)ccc4ncoc34)CC2)c(=O)n2nc(-c3ccnc(OC)c3)nc2n1CC(=O)NC12CC(C(C)C)(C1)C2 [I-35, 2-(5-ethyl-6-(4-(6-hydroxybenzo[d]oxazole-7-carbonyl)piperazin-1-yl)-2-(2-methoxypyridin-4-yl)-7-oxo-[1,2,4]triazolo[1,5-a]pyrimidin-4(7H)-yl)-N-(3-isopropylbicyclo[1.1.1]pentan-1-yl)acetamide] |
| ≤ 5 | ≤ 500 | CCc1c(N2CCN(C(=O)c3c(O)ccc4ncoc34)CC2)c(=O)n2nc(-c3ccnc(OC)c3)nc2n1CC(=O)NC12CC(C3CC3)(C1)C2 [I-36, N-(3-cyclopropylbicyclo[1.1.1]pentan-1-yl)-2-(5-ethyl-6-(4-(6-hydroxybenzo[d]oxazole-7-carbonyl)piperazin-1-yl)-2-(2-methoxypyridin-4-yl)-7-oxo-[1,2,4]triazolo[1,5-a]pyrimidin-4(7H)-yl)acetamide] |

More lines, now with the values behind:

| Structure (SMILES) | IC50 [1] [nM] | EC50 [2] [nM] |
| --- | --- | --- |
| CCc1c(N2CCN(C(=O)c3ncc4c(c3O)CCO4)CC2)c(=O)n2nc(C3=CCN(C(=O)COC)CC3)nc2n1CC(=O)NC12CC(C(F)(F)F)(C1)C2 [I-21, 2-(5-ethyl-6-(4-(4-hydroxy-2,3-dihydrofuro[2,3-c]pyridine-5-carbonyl)piperazin-1-yl)-2-(1-(2-methoxyacetyl)-1,2,3,6-tetrahydropyridin-4-yl)-7-oxo-[1,2,4]triazolo[1,5-a]pyrimidin-4(7H)-yl)-N-(3-(trifluoromethyl)bicyclo[1.1.1]pentan-1-yl)acetamide] | 5 to 50 | 2000 to 5000 |
| CCc1c(N2CCN(C(=O)c3c(O)ccc4ncoc34)CC2)c(=O)n2nc(N(C)C)nc2n1CC(=O)NC12CC(C(F)(F)F)(C1)C2 [I-22, 2-(2-(dimethylamino)-5-ethyl-6-(4-(6-hydroxybenzo[d]oxazole-7-carbonyl)piperazin-1-yl)-7-oxo-[1,2,4]triazolo[1,5-a]pyrimidin-4(7H)-yl)-N-(3-(trifluoromethyl)bicyclo[1.1.1]pentan-1-yl)acetamide] | 5 to 50 | 2000 to 5000 |
| CCc1c(N2CCN(C(=O)c3c(O)ccc4ncoc34)CC2)c(=O)n2nc(-c3ccnc(OC)c3)nc2n1CC(=O)NC12CC(CC)(C1)C2 [I-23, 2-(5-ethyl-6-(4-(6-hydroxybenzo[d]oxazole-7-carbonyl)piperazin-1-yl)-2-(2-methoxypyridin-4-yl)-7-oxo-[1,2,4]triazolo[1,5-a]pyrimidin-4(7H)-yl)-N-(3-ethylbicyclo[1.1.1]pentan-1-yl)acetamide] | 5 to 50 | ≤ 500 |
| CCc1c(N2CCN(C(=O)c3ncnc(C)c3O)CC2)c(=O)c2sc(-c3ccnc(OC)c3)nc2n1CC(=O)NC12CC(C(F)(F)F)(C1)C2 [I-25, 2-(5-ethyl-6-(4-(5-hydroxy-6-methylpyrimidine-4-carbonyl)piperazin-1-yl)-2-(2-methoxypyridin-4-yl)-7-oxothiazolo[4,5-b]pyridin-4(7H)-yl)-N-(3-(trifluoromethyl)bicyclo[1.1.1]pentan-1-yl)acetamide] | 5 to 50 | > 5000 |
| CCc1c(N2CCN(C(=O)c3ncnc(C)c3O)CC2)c(=O)n2nc(C3=CCOCC3)nc2n1CC(=O)NC12COC(C(F)(F)F)(C1)C2 [I-26, 2-(2-(3,6-dihydro-2H-pyran-4-yl)-5-ethyl-6-(4-(5-hydroxy-6-methylpyrimidine-4-carbonyl)piperazin-1-yl)-7-oxo-[1,2,4]triazolo[1,5-a]pyrimidin-4(7H)-yl)-N-(1-(trifluoromethyl)-2-oxabicyclo[2.1.1]hexan-4-yl)acetamide] | 100 to 500 | > 5000 |
| CCc1c(N2CCN(C(=O)c3ncnc(C)c3O)CC2)c(=O)n2nc(-c3ccnc(OC)c3)nc2n1CC(=O)NC1CC(C(F)(F)F)C1 (stereo not shown) [I-27, 2-(5-ethyl-6-(4-(5-hydroxy-6-methylpyrimidine-4-carbonyl)piperazin-1-yl)-2-(2-methoxypyridin-4-yl)-7-oxo-[1,2,4]triazolo[1,5-a]pyrimidin-4(7H)-yl)-N-(3-(trifluoromethyl)cyclobutyl)acetamide] | 100 to 500 | > 5000 |
